Measured values published in PubChem BioAssay (NCI).
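Five concentrations, 48 hours, 96-well plates. TGI is the concentration that stops growth completely.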

Tests used:
Test in all cases: NCI tumour cell line growth inhibition, 48 h
SNB-78 CNS = system: SNB-78 CNS
LXFL 529 NSCLC = system: LXFL 529 NSCLC
DLD-1 colon = system: DLD-1 colon
KM20L2 colon = system: KM20L2 colon
DMS 273 small cell lung = system: DMS 273 small cell lung
DMS 114 small cell lung = system: DMS 114 small cell lung
XF 498 CNS = system: XF 498 CNS
HOP-18 NSCLC = system: HOP-18 NSCLC
RXF-631 renal = system: RXF-631 renal

SMILES | TGI (SNB-78 CNS) [µM] | TGI (LXFL 529 NSCLC) [µM] | TGI (DLD-1 colon) [µM] | TGI (KM20L2 colon) [µM] | TGI (DMS 273 small cell lung) [µM] | TGI (DMS 114 small cell lung) [µM] | TGI (XF 498 CNS) [µM] | TGI (HOP-18 NSCLC) [µM] | TGI (RXF-631 renal) [µM]
COC(=O)N/N=C(/Cc1occc(=O)c1O)C(=O)Nc1ccc([N+](=O)[O-])cc1[N+](=O)[O-] | > 100 | > 100 | > 100 | > 100 | > 100 | > 100 | > 100 | > 100 | 
COC(=O)C(=O)C(C(=O)OC)C(=O)C(=O)Nc1cc(Cl)c(Cl)cc1Cl (stereo not drawn) |  | > 100 | > 100 | > 100 | > 100 | 30.8 | > 100 | > 100 | > 100
Cn1nc2ccccc2cc1=O | > 100 |  | > 100 | > 100 | > 100 | > 100 | > 100 | > 100 | > 100
COC1=CC(=O)C2C(C1=O)C(c1ccc(OC)c(OC)c1)[C@H]2C (stereo partly drawn) | > 100 | 33.3 | 31.5 | > 100 | 60.3 | 42.3 | 29.9 | 35.1 | 32.7
COc1ccc2c(c1)OC(c1ccccc1O)CC2=O (stereo not drawn) | 84.8 | 71.5 | > 100 | > 100 |  |  | > 100 | > 100 | 
CC(C)(C)C(=O)/C=C/c1cccc(Oc2ccccc2)c1 | 48.1 | 33.1 | 28.5 | 28.2 |  |  | 32.9 | 30.2 | > 100
CCN(CC)CCCNc1ncc(C)c2c1c1ccc3c(O)cccc3c1n2C | > 61 | 3.06 | 3.85 | 10.5 | 2.14 | 2.68 | 29.5 | 16.3 | 
CC(C)c1cccc(C(C)C)c1NC(=O)CCC(=O)NN | > 100 | > 100 | > 100 | > 100 | > 100 | > 100 |  | > 100 | 
C/C(=N/NC(N)=S)C(CN(C)C)C(C1=C(O)c2ccccc2OC1)c1ccccc1 (stereo not drawn) | > 100 | > 100 | > 100 | > 100 | > 100 | > 100 | > 100 | > 100 | 
O=C1NC2C(CCO)CC=C[C@H]2c2cc3c(cc21)OCO3 (stereo partly drawn) | > 100 | > 100 | > 100 | > 100 | > 100 | > 100 |  |  | 
CCCc1c(C(=O)OCC)[nH]c(C(=O)CCC(=O)c2[nH]c(C(=O)OCC)c(CCC)c2C(=O)OCC)c1C(=O)OCC | > 100 | > 100 | > 100 | > 100 | > 100 | > 100 | > 100 | > 100 | 
O=C(N/N=C(\c1nc2ccc(Cl)cc2[nH]c1=O)C(O)c1ccccc1Cl)c1ccncc1 (stereo not drawn) |  | > 100 | > 100 | > 100 | > 100 | > 100 |  | > 100 | > 100
CCN(CC)CCCCC1CCN(CC(=O)N2c3cc(Cl)ccc3NC(=O)CC2C)CC1 (stereo not drawn) |  | > 100 | > 100 | > 100 | > 100 |  |  | > 100 | 
CCOC(=O)Nn1c(C)cc(C(=O)OC)c1C | > 100 | > 100 | > 100 | > 100 | > 100 | > 100 | > 100 |  | 
CC(C)C1COC(c2ccc3ccccc3c2-c2c(O[Si](C)(C)C(C)(C)C)ccc3ccccc23)=N1 (stereo not drawn) | 21.4 | 28.7 | 31.4 | 37.2 | 42.8 | 30.9 | 28.9 |  | 61.3
CN1N=C2c3ccccc3CC[C@H]2C1c1cccc(O)c1 (stereo partly drawn) |  | > 100 | > 100 | > 100 | > 100 | > 100 | > 100 |  | 
C#Cc1cc(CN(CC(=O)OC(C)(C)C)CC(=O)OC(C)(C)C)nc(CN(CC(=O)OC(C)(C)C)CC(=O)OC(C)(C)C)c1 | 70.4 | 11.4 |  | 69.7 | 28.6 | 11.5 | 36.6 |  | 38.7
